The supplement of paper PMC11781733

Assays:
Details in all cases: exposure time: 15 min to 3 h acute
Dugesia japonica [1] = assay: anxiety (time in outer well region) vs vehicle (% change vs vehicle); higher = higher incidence or increase relative to vehicle control
Method: (§1)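 Adult asexual Dugesia japonica planarians (1 per well, 48-well plate, n=24 over technical triplicates) were exposed acutely (15 min to 3 h) to each compound (0.5% DMSO or water vehicle) and screened on a robotic platform for crawl-out, stickiness, body shape, phototaxis, noxious-heat scrunching and locomotion endpoints. Binary endpoints are incidence rate x100 normalised to in-plate vehicle controls. Continuous endpoints are the median response normalised to the plate vehicle median, as % change or difference. Negative incidences after vehicle subtraction were set to 0.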

Dugesia japonica [2] = assay: C-shape incidence (% planarians (vehicle-normalised)); higher = higher incidence or increase relative to vehicle control
Method: as §1

Dugesia japonica [3] = assay: loss of heat-induced scrunching incidence (% planarians (vehicle-normalised)); higher = higher incidence or increase relative to vehicle control
Method: as §1

Dugesia japonica [4] = assay: speed in dark vs vehicle (% change vs vehicle); higher = higher incidence or increase relative to vehicle control
Method: as §1

Dugesia japonica [5] = assay: contracted body shape incidence (% planarians (vehicle-normalised)); higher = higher incidence or increase relative to vehicle control
Method: as §1

Dugesia japonica [6] = assay: resting fraction in dark vs vehicle (difference in fraction x100 vs vehicle); higher = higher incidence or increase relative to vehicle control
Method: as §1

Dugesia japonica [7] = assay: speed first 30 s blue light vs vehicle (% change vs vehicle); higher = higher incidence or increase relative to vehicle control
Method: as §1

Dugesia japonica [8] = assay: loss of phototaxis incidence (% planarians (vehicle-normalised)); higher = higher incidence or increase relative to vehicle control
Method: as §1

Dugesia japonica [9] = assay: speed second 30 s blue light vs vehicle (% change vs vehicle); higher = higher incidence or increase relative to vehicle control
Method: as §1

Dugesia japonica [10] = assay: stickiness incidence (% planarians (vehicle-normalised)); higher = higher incidence or increase relative to vehicle control
Method: as §1

Dugesia japonica [11] = assay: any abnormal body shape incidence (% planarians (vehicle-normalised)); higher = higher incidence or increase relative to vehicle control
Method: as §1

Dugesia japonica [12] = assay: total locomotor bursts minus vehicle (bursts difference vs vehicle); higher = higher incidence or increase relative to vehicle control
Method: as §1

Dugesia japonica [13] = assay: corkscrew incidence (% planarians (vehicle-normalised)); higher = higher incidence or increase relative to vehicle control
Method: as §1

Dugesia japonica [14] = assay: crawl-out incidence (% planarians); higher = higher incidence or increase relative to vehicle control
Method: as §1, with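 “x100.” for “x100 normalised to in-plate vehicle controls.”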

Dugesia japonica [15] = assay: hyperkinesis incidence (% planarians (vehicle-normalised)); higher = higher incidence or increase relative to vehicle control
Method: as §1

Dugesia japonica [16] = assay: pharynx extrusion incidence (% planarians (vehicle-normalised)); higher = higher incidence or increase relative to vehicle control
Method: as §1

Dugesia japonica [17] = assay: resting fraction in blue light vs vehicle (difference in fraction x100 vs vehicle); higher = higher incidence or increase relative to vehicle control
Method: as §1

Dugesia japonica [18] = assay: noxious heat displacement strength vs vehicle (% change vs vehicle); higher = higher incidence or increase relative to vehicle control
Method: as §1

Compound | anxiety (Dugesia japonica [1]) | C-shape incidence (Dugesia japonica [2]) | loss of heat-induced scrunching incidence (Dugesia japonica [3]) | speed in dark (Dugesia japonica [4]) | contracted body shape incidence (Dugesia japonica [5]) | resting fraction in dark (Dugesia japonica [6]) | speed first 30 s blue light (Dugesia japonica [7]) | loss of phototaxis incidence (Dugesia japonica [8]) | speed second 30 s blue light (Dugesia japonica [9]) | stickiness incidence (Dugesia japonica [10]) | any abnormal body shape incidence (Dugesia japonica [11]) | total locomotor bursts minus vehicle (Dugesia japonica [12]) | corkscrew incidence (Dugesia japonica [13]) | crawl-out incidence (Dugesia japonica [14]) | hyperkinesis incidence (Dugesia japonica [15]) | pharynx extrusion incidence (Dugesia japonica [16]) | resting fraction in blue light (Dugesia japonica [17]) | noxious heat displacement strength (Dugesia japonica [18])
O=C1CCc2ccc(OCCCCN3CCN(c4cccc(Cl)c4Cl)CC3)cc2N1 [aripiprazole] (3.16 µM) | 0.35 | 0 | 4.17 | 27.4 | 0 | -2.43 | 18.9 | 45.8 | 8.71 | ≤ 0 | 4.17 | -2.5 | 0 | 0 | 4.17 | 0 | 0.05 | 0.14
O=C1CCc2ccc(OCCCCN3CCN(c4cccc(Cl)c4Cl)CC3)cc2N1 [aripiprazole] (10 µM) | -16.3 | 12.5 | 16.7 | -46.8 | 0 | 34.5 | -70.8 | 25 | -63.1 | ≤ 0 | 20.8 | 31 | 4.17 | 0 | 4.17 | 0 | 19.8 | -17.3
O=C1CCc2ccc(OCCCCN3CCN(c4cccc(Cl)c4Cl)CC3)cc2N1 [aripiprazole] (31.6 µM) | -46.5 | 62.5 | 70.8 | -62.3 | 0 | 56.6 | -79.9 | 25 | -81.8 | ≤ 0 | 70.8 | 53 | 4.17 | 0 | 12.5 | 4.17 | 32 | -38.6
O=C1CCc2ccc(OCCCCN3CCN(c4cccc(Cl)c4Cl)CC3)cc2N1 [aripiprazole] (100 µM) | -67.2 | 60.9 | 78.3 | -64.8 | 0 | 56.9 | -88.7 | 47.8 | -88.8 | ≤ 0 | 65.2 | 55 | 0 | 4.17 | 17.4 | 0 | 69.8 | -49
O=C(CCCN1CCC(O)(c2ccc(Br)cc2)CC1)c1ccc(F)cc1 [bromperidol] (3.16 µM) | -1.33 | 4.76 | 47.6 | -33.9 | 9.52 | 24 | -55.1 | ≤ 0 | -53.4 | ≤ 0 | 57.1 | 11 | 14.3 | 33.3 | 47.6 | 0 | 28.6 | -37
O=C(CCCN1CCC(O)(c2ccc(Br)cc2)CC1)c1ccc(F)cc1 [bromperidol] (10 µM) | 7.64 | 0 | 47.6 | -40.7 | 4.76 | 50.5 | -49.8 | ≤ 0 | -60.1 | ≤ 0 | 66.7 | 8 | 42.9 | 25 | 52.4 | 0 | 38 | -32.1
O=C(CCCN1CCC(O)(c2ccc(Br)cc2)CC1)c1ccc(F)cc1 [bromperidol] (31.6 µM) | 20.6 | 4.35 | 52.2 | -41 | 30.4 | 43.3 | -69 | ≤ 0 | -63.1 | ≤ 0 | 73.9 | 0.5 | 21.7 | 8.33 | 69.6 | 0 | 37.3 | -36.2
O=C(CCCN1CCC(O)(c2ccc(Br)cc2)CC1)c1ccc(F)cc1 [bromperidol] (100 µM) | 21.1 | 4.76 | 28.6 | -39.1 | 4.76 | 43.4 | -53.3 | ≤ 0 | -63.4 | ≤ 0 | 57.1 | 17 | 23.8 | 25 | 42.9 | 0 | 40.4 | -48
CC(NC(C)(C)C)C(=O)c1cccc(Cl)c1 (stereo not drawn) [bupropion] (31.6 µM) | 2.47 | 0 | 16.7 | -1.56 | 4.17 | 17.5 | -59.5 | 20.8 | -19.4 | ≤ 0 | 0 | -7.5 | 0 | 0 | 0 | 0 | 23.4 | -22.3
CC(NC(C)(C)C)C(=O)c1cccc(Cl)c1 (stereo not drawn) [bupropion] (100 µM) | 3.91 | 0 | 12.5 | -35.4 | 0 | 25.7 | 9.9 | 4.17 | 20.6 | 13 | 0 | -1 | 0 | 0 | 0 | 0 | -3.29 | -32.4
CC(NC(C)(C)C)C(=O)c1cccc(Cl)c1 (stereo not drawn) [bupropion] (316 µM) | 5.33 | 0 | 8.33 | 22.5 | 0 | 51.6 | -72 | ≤ 0 | -21.6 | 29.2 | 0 | -7 | 0 | 0 | 4.17 | 0 | 25.2 | -7.65
CC(NC(C)(C)C)C(=O)c1cccc(Cl)c1 (stereo not drawn) [bupropion] (1000 µM) | 13.4 | 0 | 83.3 | -56.9 | 0 | 56.1 | -64.2 | ≤ 0 | -9.8 | 37.5 | 50 | -2.5 | 33.3 | 0 | 45.8 | 0 | 19.6 | -39.5
O=C1CC2(CCCC2)CC(=O)N1CCCCN1CCN(c2ncccn2)CC1 [buspirone] (3.16 µM) | -2.65 | 0 | ≤ 0 | 8.61 | 0 | 4.15 | -21.3 | 16.7 | -34.4 | 4.17 | 8.33 | 4.25 | 0 | 0 | 8.33 | 0 | 8.98 | -34.1
Cc1cc2c(s1)Nc1ccccc1N=C2N1CCN(C)CC1 [olanzapine] (10 µM) | -12.4 | 4.17 | 58.3 | -68 | 0 | 72.3 | -85.6 | 4.17 | -80.9 | ≤ 0 | 58.3 | 20 |  | 0 | 58.3 | 0 | 63.5 | -28.1
Cc1cc2c(s1)Nc1ccccc1N=C2N1CCN(C)CC1 [olanzapine] (31.6 µM) | 24.7 | 4.17 | 75 | -71.9 |  | 78.3 | -93.9 | 17.4 | -89.9 | 16.7 | 75 | 6 | 16.7 | 4.17 | 62.5 | 0 | 77.7 | -52.3
